In PubChem BioAssay (NCI):
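Protocol summary: plate cells (96-well), add compound at 5 concentrations, incubate 48 h, interpolate endpoints linearly. GI50 is the concentration that inhibits growth by half. The concentration for full growth arrest is given as TGI.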

Tests used:
Assay in all cases: DTP human tumour cell line panel, 48 h
786-0 renal = system: 786-0 renal
A498 renal = system: A498 renal
A549 NSCLC = system: A549 NSCLC
ACHN renal = system: ACHN renal
BT-549 breast = system: BT-549 breast
CAKI-1 renal = system: CAKI-1 renal
CCRF-CEM leukemia = system: CCRF-CEM leukemia
COLO 205 colon = system: COLO 205 colon
DU-145 prostate = system: DU-145 prostate
EKVX NSCLC = system: EKVX NSCLC
HCC-2998 colon = system: HCC-2998 colon
HCT-116 colon = system: HCT-116 colon
HCT-15 colon = system: HCT-15 colon
HL-60(TB) leukemia = system: HL-60(TB) leukemia
HOP-62 NSCLC = system: HOP-62 NSCLC
HOP-92 NSCLC = system: HOP-92 NSCLC
HS 578T breast = system: HS 578T breast
HT29 colon = system: HT29 colon
IGROV1 ovarian = system: IGROV1 ovarian
K-562 leukemia = system: K-562 leukemia
KM12 colon = system: KM12 colon
LOX IMVI melanoma = system: LOX IMVI melanoma
M14 melanoma = system: M14 melanoma
MALME-3M melanoma = system: MALME-3M melanoma
MCF7 breast = system: MCF7 breast
MDA-MB-231 breast = system: MDA-MB-231 breast
MDA-MB-435 = system: MDA-MB-435
MOLT-4 leukemia = system: MOLT-4 leukemia
NCI-H226 lung = system: NCI-H226 lung
NCI-H23 lung = system: NCI-H23 lung
NCI-H460 lung = system: NCI-H460 lung
NCI-H522 lung = system: NCI-H522 lung
NCI/ADR-RES ovarian = system: NCI/ADR-RES ovarian
OVCAR-3 ovarian = system: OVCAR-3 ovarian
OVCAR-4 ovarian = system: OVCAR-4 ovarian
OVCAR-5 ovarian = system: OVCAR-5 ovarian
OVCAR-8 ovarian = system: OVCAR-8 ovarian
PC-3 prostate = system: PC-3 prostate
RPMI-8226 leukemia = system: RPMI-8226 leukemia
RXF 393 renal = system: RXF 393 renal
SF-268 CNS = system: SF-268 CNS
SF-295 CNS = system: SF-295 CNS
SF-539 CNS = system: SF-539 CNS
SK-MEL-2 melanoma = system: SK-MEL-2 melanoma
SK-MEL-28 melanoma = system: SK-MEL-28 melanoma
SK-MEL-5 melanoma = system: SK-MEL-5 melanoma
SK-OV-3 ovarian = system: SK-OV-3 ovarian
SN12C renal = system: SN12C renal
SNB-19 CNS = system: SNB-19 CNS
SNB-75 CNS = system: SNB-75 CNS
SR leukemia = system: SR leukemia
SW-620 colon = system: SW-620 colon
T-47D breast = system: T-47D breast
TK-10 renal = system: TK-10 renal
U251 CNS = system: U251 CNS
UACC-257 melanoma = system: UACC-257 melanoma
UACC-62 melanoma = system: UACC-62 melanoma
UO-31 renal = system: UO-31 renal

`NS(=O)(=O)c1ccc(N=Nc2c(O)[nH]c3ccc(Cl)cc23)cc1` showed a GI50 (786-0 renal) of 8.42 µM, a TGI (786-0 renal) greater than 20.3 µM and a GI50 (A498 renal) greater than 22 µM. For the same compound, the TGI (A498 renal) was greater than 25 µM, the GI50 (A549 NSCLC) was 11.3 µM and the TGI (A549 NSCLC) was greater than 25 µM. It also gave a GI50 (ACHN renal) of 9.95 µM, a TGI (ACHN renal) greater than 25 µM and a GI50 (BT-549 breast) greater than 16.9 µM. For the same compound, the TGI (BT-549 breast) was greater than 25 µM, the GI50 (CAKI-1 renal) was greater than 17.9 µM and the TGI (CAKI-1 renal) was greater than 25 µM. For the same compound, the GI50 (CCRF-CEM leukemia) was greater than 7.22 µM, the TGI (CCRF-CEM leukemia) was greater than 25 µM and the GI50 (COLO 205 colon) was greater than 25 µM. For the same compound, the TGI (COLO 205 colon) was greater than 25 µM, the GI50 (DU-145 prostate) was 15.5 µM and the TGI (DU-145 prostate) was greater than 25 µM. For the same compound, the GI50 (EKVX NSCLC) was greater than 25 µM, the TGI (EKVX NSCLC) was greater than 25 µM and the GI50 (HCC-2998 colon) was 18.3 µM. The TGI (HCC-2998 colon) was greater than 25 µM, the GI50 (HCT-116 colon) was 7.04 µM and the TGI (HCT-116 colon) was greater than 16.9 µM. It also gave a GI50 (HCT-15 colon) greater than 22.1 µM, a TGI (HCT-15 colon) greater than 25 µM and a GI50 (HL-60(TB) leukemia) greater than 25 µM. For the same compound, the TGI (HL-60(TB) leukemia) was greater than 25 µM, the GI50 (HOP-62 NSCLC) was 13.4 µM and the TGI (HOP-62 NSCLC) was greater than 25 µM. For the same compound, the GI50 (HOP-92 NSCLC) was greater than 9.61 µM, the TGI (HOP-92 NSCLC) was greater than 25 µM and the GI50 (HS 578T breast) was 11.6 µM. For the same compound, the TGI (HS 578T breast) was greater than 25 µM, the GI50 (HT29 colon) was greater than 18.9 µM and the TGI (HT29 colon) was greater than 25 µM. It also gave a GI50 (IGROV1 ovarian) greater than 19.6 µM, a TGI (IGROV1 ovarian) greater than 25 µM and a GI50 (K-562 leukemia) greater than 25 µM. The TGI (K-562 leukemia) was greater than 25 µM, the GI50 (KM12 colon) was 7.58 µM and the TGI (KM12 colon) was greater than 25 µM. For the same compound, the GI50 (LOX IMVI melanoma) was 9.96 µM, the TGI (LOX IMVI melanoma) was greater than 25 µM and the GI50 (M14 melanoma) was greater than 25 µM. The TGI (M14 melanoma) was greater than 25 µM, the GI50 (MALME-3M melanoma) was 20.7 µM and the TGI (MALME-3M melanoma) was greater than 25 µM. For the same compound, the GI50 (MCF7 breast) was 12.2 µM, the TGI (MCF7 breast) was greater than 25 µM and the GI50 (MDA-MB-231 breast) was 8.86 µM. The TGI (MDA-MB-231 breast) was greater than 25 µM, the GI50 (MDA-MB-435) was greater than 25 µM and the TGI (MDA-MB-435) was greater than 25 µM. The GI50 (MOLT-4 leukemia) was greater than 25 µM, the TGI (MOLT-4 leukemia) was greater than 25 µM and the GI50 (NCI-H226 lung) was 13.6 µM. It also gave a TGI (NCI-H226 lung) greater than 25 µM, a GI50 (NCI-H23 lung) of 14 µM and a TGI (NCI-H23 lung) greater than 25 µM. For the same compound, the GI50 (NCI-H460 lung) was 8.62 µM, the TGI (NCI-H460 lung) was greater than 25 µM and the GI50 (NCI-H522 lung) was 5.38 µM. The TGI (NCI-H522 lung) was greater than 25 µM, the GI50 (NCI/ADR-RES ovarian) was 24.5 µM and the TGI (NCI/ADR-RES ovarian) was greater than 25 µM. The GI50 (OVCAR-3 ovarian) was 4.87 µM, the TGI (OVCAR-3 ovarian) was 14.2 µM and the GI50 (OVCAR-4 ovarian) was greater than 21.9 µM. The TGI (OVCAR-4 ovarian) was greater than 25 µM, the GI50 (OVCAR-5 ovarian) was greater than 25 µM and the TGI (OVCAR-5 ovarian) was greater than 25 µM. The GI50 (OVCAR-8 ovarian) was 12.9 µM, the TGI (OVCAR-8 ovarian) was greater than 25 µM and the GI50 (PC-3 prostate) was greater than 25 µM. It also gave a TGI (PC-3 prostate) greater than 25 µM, a GI50 (RPMI-8226 leukemia) greater than 25 µM and a TGI (RPMI-8226 leukemia) greater than 25 µM. It also gave a GI50 (RXF 393 renal) of 12.9 µM, a TGI (RXF 393 renal) greater than 25 µM and a GI50 (SF-268 CNS) of 17.6 µM. For the same compound, the TGI (SF-268 CNS) was greater than 25 µM, the GI50 (SF-295 CNS) was greater than 25 µM and the TGI (SF-295 CNS) was greater than 25 µM. The GI50 (SF-539 CNS) was 5.29 µM, the TGI (SF-539 CNS) was greater than 21.9 µM and the GI50 (SK-MEL-2 melanoma) was greater than 18.3 µM. The TGI (SK-MEL-2 melanoma) was greater than 25 µM, the GI50 (SK-MEL-28 melanoma) was greater than 25 µM and the TGI (SK-MEL-28 melanoma) was greater than 25 µM. The GI50 (SK-MEL-5 melanoma) was 16.1 µM, the TGI (SK-MEL-5 melanoma) was greater than 25 µM and the GI50 (SK-OV-3 ovarian) was 6.73 µM. For the same compound, the TGI (SK-OV-3 ovarian) was 14.5 µM, the GI50 (SN12C renal) was 17.2 µM and the TGI (SN12C renal) was greater than 25 µM. The GI50 (SNB-19 CNS) was greater than 25 µM, the TGI (SNB-19 CNS) was greater than 25 µM and the GI50 (SNB-75 CNS) was 8.66 µM. It also gave a TGI (SNB-75 CNS) of 24.9 µM, a GI50 (SR leukemia) of 6.13 µM and a TGI (SR leukemia) greater than 25 µM. For the same compound, the GI50 (SW-620 colon) was greater than 22.4 µM, the TGI (SW-620 colon) was greater than 25 µM and the GI50 (T-47D breast) was greater than 25 µM. For the same compound, the TGI (T-47D breast) was greater than 25 µM, the GI50 (TK-10 renal) was 5.78 µM and the TGI (TK-10 renal) was greater than 23 µM. The GI50 (U251 CNS) was 6.64 µM, the TGI (U251 CNS) was greater than 25 µM and the GI50 (UACC-257 melanoma) was greater than 25 µM. It also gave a TGI (UACC-257 melanoma) greater than 25 µM, a GI50 (UACC-62 melanoma) greater than 15.2 µM and a TGI (UACC-62 melanoma) greater than 25 µM. The GI50 (UO-31 renal) was 6.46 µM and the TGI (UO-31 renal) was greater than 20.6 µM.
